Data: patent publication US9382295B2, “Cyclic depsipeptide compounds and their uses” (Cypralis Limited, priority 2012, dated 2016)
In brackets after ≈: the same amount, converted by molar mass. Numbered stars: 1 amine (or outer) side, 2 acyl side, 3 side chain; on linkers, the order of the positions; unused ones are H or OH. Square brackets hold non-standard residues; d marks the D form. Peptide text beside a SMILES is read from it. X32 = CC(=O)N(CC[C@@H](C)[C@@H](O)[C@H](C(=O)[*:2])N(C)[*:1])C(C)C; X9 = C[C@H](CC(=O)NCc1ccccc1)[C@@H](O)[C@H](C(=O)[*:2])N(C)[*:1]; X15 = C[C@H](CCN1CCCCC1CO)[C@@H](O)[C@H](C(=O)[*:2])N(C)[*:1]; X18 = C[C@H](CCNCc1ccccc1)[C@@H](O)[C@H](C(=O)[*:2])N(C)[*:1]; X25 = CC(C)NCC[C@@H](C)[C@@H](O)[C@H](C(=O)[*:2])N(C)[*:1]; d(aThr) = C[C@@H](O)[C@@H](N)C(=O)O; NMeL = CN[C@@H](CC(C)C)C(=O)O; dNMeL = CN[C@H](CC(C)C)C(=O)O; dNMeV = CN[C@@H](C(=O)O)C(C)C; Hiv = CC(C)[C@H](O)C(=O)O; Sar = CNCC(=O)O

Assays:
cyclophilin D (Cyp D) = cyclophilin D (Cyp D) (Homo sapiens, UniProt P30405); test: Protease-free PPIase assay, cyclophilin D; format: biochemical
How it was run: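 Cis-trans isomerization of a succinimide-peptide substrate (60 µM final) by 2 nM enzyme was followed at 330 nm in 35 mM HEPES pH 7.8 with 50 µM DTT, stirred at 10.0 °C, DMSO ≤0.5%. First-order rate constants minus background were fitted against inhibitor concentration to give Ki.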

cyclophilin A (Cyp A) = biological target: T1, cyclophilin A (Cyp A) (Homo sapiens, UniProt P62937); test: Protease-free PPIase assay, cyclophilin A; format: biochemical
T1 construct: purchased Sigma C3805
How it was run: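 Protease-free cis-trans isomerisation: 2 nM recombinant human cyclophilin A with 60 μM succinimide-peptide substrate in 35 mM HEPES pH 7.8 plus DTT, at 10.0 °C, max 0.5% DMSO. Absorbance at 330 nm was fitted to first-order kinetics, background subtracted, and catalytic rates versus inhibitor concentration gave Ki.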

[1] = Water solubility assay (pH 7.8 buffer); format: physicochemical; conditions: pH 7.8
How it was run: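 DMSO stocks were diluted into 35 mM HEPES pH 7.8 to final 0–100 μM with 1% DMSO, in triplicate. Plates were shaken 18 h at 25 °C, then precipitation was detected as increased absorbance at 650 nm. Values give the concentration (μM) at which the compound remains in solution.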

Chain of cyclophilin D (Cyp D) (P30405 30-207): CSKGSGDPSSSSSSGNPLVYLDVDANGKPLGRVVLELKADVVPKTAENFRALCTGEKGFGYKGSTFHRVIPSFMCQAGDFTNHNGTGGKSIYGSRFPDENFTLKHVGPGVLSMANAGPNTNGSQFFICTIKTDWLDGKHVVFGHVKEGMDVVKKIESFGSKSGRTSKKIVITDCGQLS
T1 sequence (P62937 whole entry): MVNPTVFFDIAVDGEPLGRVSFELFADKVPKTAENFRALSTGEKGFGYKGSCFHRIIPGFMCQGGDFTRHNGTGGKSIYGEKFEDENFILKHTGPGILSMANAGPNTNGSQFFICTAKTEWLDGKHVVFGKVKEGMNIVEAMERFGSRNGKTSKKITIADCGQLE

Row | SMILES | Ki (cyclophilin D (Cyp D)) [µM] | Ki (cyclophilin A (Cyp A)) [µM] | solubility at 18 h [1] [µM]
1 | CC(C)C[C@@H]1C(=O)N[C@H](CC(C)C)C(=O)N(C)[C@H](C(C)C)C(=O)N(C)[C@H]([C@H](O)[C@H](C)CCNCc2ccccc2)C(=O)N[C@H]([C@@H](C)O)C(=O)N(C)CC(=O)N(C)[C@@H](CC(C)C)C(=O)N[C@H](CC(C)C)C(=O)N(C)[C@H](CC(C)C)C(=O)N[C@H](C)C(=O)O[C@@H](C(C)C)C(=O)N1C [Example 35, cyclo-[(3R,4R,5S)-1-benzylamino-3-methyl-5-methylamino-4-hydroxy-hexanoic acid-Thr-Sar-MeLeu-Leu-MeLeu-Ala-D-Hiv-MeLeu-Leu-MeVal]] (cyclo([Hiv][dNMeL][dL][dNMeV][X18][d(aThr)][Sar][NMeL][dL][dNMeL][dA])) | 0.001 to 0.025 | 0.025 to 0.1 | 25 to 50 (≈ 33.2 to 66.3 µg/mL)
2 | CC(C)C[C@@H]1C(=O)N[C@H](CC(C)C)C(=O)N(C)[C@H](C(C)C)C(=O)N(C)[C@H]([C@H](O)[C@H](C)CC(=O)NCc2ccccc2)C(=O)N[C@H]([C@@H](C)O)C(=O)N(C)CC(=O)N(C)[C@@H](CC(C)C)C(=O)N[C@H](CC(C)C)C(=O)N(C)[C@H](CC(C)C)C(=O)N[C@H](C)C(=O)O[C@@H](C(C)C)C(=O)N1C [Example 36, cyclo-[(3R,4R,5S)-1-benzylcarbamoyl-3-methyl-5-methylamino-4-hydroxy-pentanoic acid-Thr-Sar-MeLeu-Leu-MeLeu-Ala-D-Hiv-MeLeu-Leu-MeVal]] (cyclo([Hiv][dNMeL][dL][dNMeV][X9][d(aThr)][Sar][NMeL][dL][dNMeL][dA])) | 0.001 to 0.025 | 0.001 to 0.025 | 25 to 50 (≈ 33.5 to 67 µg/mL)
3 | CC(C)C[C@@H]1C(=O)N[C@H](CC(C)C)C(=O)N(C)[C@H](C(C)C)C(=O)N(C)[C@H]([C@H](O)[C@H](C)CCNC(C)C)C(=O)N[C@H]([C@@H](C)O)C(=O)N(C)CC(=O)N(C)[C@@H](CC(C)C)C(=O)N[C@H](CC(C)C)C(=O)N(C)[C@H](CC(C)C)C(=O)N[C@H](C)C(=O)O[C@@H](C(C)C)C(=O)N1C [Example 37, cyclo-[(3R,4R,5S)-4-hydroxy-1-isopropylamino-3-methyl-5-methylamino-hexanoic acid-Thr-Sar-MeLeu-Leu-MeLeu-Ala-D-Hiv-MeLeu-Leu-MeVal]] (cyclo([Hiv][dNMeL][dL][dNMeV][X25][d(aThr)][Sar][NMeL][dL][dNMeL][dA])) | 0.001 to 0.025 | 0.025 to 0.1 | > 100
4 | CC(=O)N(CC[C@@H](C)[C@@H](O)[C@@H]1C(=O)N[C@H]([C@@H](C)O)C(=O)N(C)CC(=O)N(C)[C@@H](CC(C)C)C(=O)N[C@H](CC(C)C)C(=O)N(C)[C@H](CC(C)C)C(=O)N[C@H](C)C(=O)O[C@@H](C(C)C)C(=O)N(C)[C@H](CC(C)C)C(=O)N[C@H](CC(C)C)C(=O)N(C)[C@H](C(C)C)C(=O)N1C)C(C)C [Example 38, cyclo-[(3R,4R,5S)-1-(acetyl-isopropyl-amino)-4-hydroxy-3-methyl-5-methylamino-hexanoic acid-Thr-Sar-MeLeu-Leu-MeLeu-Ala-D-Hiv-MeLeu-Leu-MeVal]] (cyclo([Hiv][dNMeL][dL][dNMeV][X32][d(aThr)][Sar][NMeL][dL][dNMeL][dA])) | 0.001 to 0.025 | 0.025 to 0.1 | 50 to 75 (≈ 66 to 99.1 µg/mL)
5 | CC(C)C[C@@H]1C(=O)N[C@H](CC(C)C)C(=O)N(C)[C@H](C(C)C)C(=O)N(C)[C@H]([C@H](O)[C@H](C)CCN2CCCCC2CO)C(=O)N[C@H]([C@@H](C)O)C(=O)N(C)CC(=O)N(C)[C@@H](CC(C)C)C(=O)N[C@H](CC(C)C)C(=O)N(C)[C@H](CC(C)C)C(=O)N[C@H](C)C(=O)O[C@@H](C(C)C)C(=O)N1C (stereo partly drawn) [Example 39, cyclo-[(2R,3R,4S)-4-hydroxy-1-(2-hydroxymethyl-piperidin-1-yl)-3-methyl-5-methylamino-hexanoic acid-Thr-Sar-MeLeu-Leu-MeLeu-Ala-D-Hiv-MeLeu-Leu-MeVal]] (cyclo([Hiv][dNMeL][dL][dNMeV][X15][d(aThr)][Sar][NMeL][dL][dNMeL][dA])) | 0.025 to 0.1 | 0.1 to 0.3 | > 100
